How the values were obtained:
mGlu5 [1] = molecular target: T1, mGlu5 (Homo sapiens, UniProt P41594); assay: standard mGlu5 calcium mobilization functional assay, human mGlu5; type: cell-based; settings: for EC50: EC50 (PAM)
mGlu5 [2] = molecular target: T1, mGlu5; assay: standard mGlu5 calcium mobilization functional assay, PAM and NAM modes; type: cell-based
mGlu5 [3] = molecular target: T1, mGlu5; settings: Figure 1 ref 14; cited from earlier work
[4] = human mGlu5 assay, synthetic material

T1 sequence (P41594 21-1212): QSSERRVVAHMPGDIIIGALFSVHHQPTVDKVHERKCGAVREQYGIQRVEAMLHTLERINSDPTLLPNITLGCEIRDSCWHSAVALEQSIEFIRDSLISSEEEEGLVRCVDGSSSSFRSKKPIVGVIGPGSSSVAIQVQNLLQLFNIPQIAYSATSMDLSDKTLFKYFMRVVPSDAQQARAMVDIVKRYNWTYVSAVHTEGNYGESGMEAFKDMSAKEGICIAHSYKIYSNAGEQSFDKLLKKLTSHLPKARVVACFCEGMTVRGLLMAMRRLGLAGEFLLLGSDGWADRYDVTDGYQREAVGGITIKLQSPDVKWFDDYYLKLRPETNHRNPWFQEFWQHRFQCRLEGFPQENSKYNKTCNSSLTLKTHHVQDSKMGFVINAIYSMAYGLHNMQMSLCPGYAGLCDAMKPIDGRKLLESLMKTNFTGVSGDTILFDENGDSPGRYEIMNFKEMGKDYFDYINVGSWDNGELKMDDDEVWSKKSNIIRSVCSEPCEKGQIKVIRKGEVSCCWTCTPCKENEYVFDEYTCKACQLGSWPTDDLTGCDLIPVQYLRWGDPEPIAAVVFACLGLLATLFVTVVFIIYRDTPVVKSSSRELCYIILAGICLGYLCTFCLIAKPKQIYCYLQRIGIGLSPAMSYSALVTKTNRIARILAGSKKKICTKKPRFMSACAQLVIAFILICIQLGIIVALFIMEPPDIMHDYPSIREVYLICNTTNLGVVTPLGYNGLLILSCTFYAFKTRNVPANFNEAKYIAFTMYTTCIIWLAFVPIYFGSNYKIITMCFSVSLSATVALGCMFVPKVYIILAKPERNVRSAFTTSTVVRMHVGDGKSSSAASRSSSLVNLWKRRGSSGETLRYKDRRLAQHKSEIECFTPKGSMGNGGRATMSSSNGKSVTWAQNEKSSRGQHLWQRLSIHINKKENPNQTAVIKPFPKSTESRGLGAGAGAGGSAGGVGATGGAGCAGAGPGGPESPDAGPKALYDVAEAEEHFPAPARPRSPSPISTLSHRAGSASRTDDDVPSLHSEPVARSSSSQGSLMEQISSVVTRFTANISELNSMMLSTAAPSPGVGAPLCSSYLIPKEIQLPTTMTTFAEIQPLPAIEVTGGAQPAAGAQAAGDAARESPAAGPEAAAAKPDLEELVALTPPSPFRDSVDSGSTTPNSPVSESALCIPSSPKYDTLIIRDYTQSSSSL

NC(=O)c1ccc(C#Cc2cccc(F)c2)cn1 [M4, 5-((3-Fluorophenyl)ethynyl)picolinamide]
EC50 (mGlu5 [1]; kit-produced M4, human mGlu5 assay, material from the BMO production kit): 510 nM
EC50 (mGlu5 [1]; synthetic-derived M4, human mGlu5 assay, synthetic material): 315 nM
% Glu Max, kit-produced M4 (mGlu5 [1]; human mGlu5 assay, material from the BMO production kit): 75 % Glu Max
% Glu Max, synthetic-derived M4 (mGlu5 [1]; [4]): 77%
agonism (no agonism noted up to), synthetic-derived M4 (mGlu5 [1]; [4]): > 30 µM

O=C(C(=O)c1cccc(F)c1)c1ccc(C(=O)NC2CCC2)nc1 [M5, N-Cyclobutyl-5-(2-(3-fluorophenyl)-2-oxoacetyl)picolinamide]
activity in NAM mode (mGlu5 [2]): inactive
activity in PAM mode (mGlu5 [2]): inactive

O=C(c1ccc(C(=O)NC2CCC2)nc1)c1cccc(F)c1 [M6, N-Cyclobutyl-5-(3-fluorobenzoyl)picolinamide]
activity in NAM mode (mGlu5 [2]): inactive
activity in PAM mode (mGlu5 [2]): inactive

O=C(O)c1ccc(C#Cc2cccc(F)c2)cn1 [compound 3, 5-((3-Fluorophenyl)ethynyl)picolinic Acid]
activity of metabolite M2, the product of amide hydrolysis (mGlu5 [3]): inactive
